The results in this text go back to article PMC7228129, “Evaluation of Developmental Toxicity, Developmental Neurotoxicity, and Tissue Dose in Zebrafish Exposed to GenX and Other PFAS” (Environmental Health Perspectives, 2020).

The series has as its system zebrafish. Briefly: Developmental toxicity (DevTox) assay. As to conditions: for Developmental toxicity outcome / EC50: scored 6 dpf; for DevTox assay phenotype: Table 5 summary, this study (some rows also list literature); for EC50: Hill fit. Format: in vivo, Danio rerio. The protocol: At 0 dpf, zebrafish embryos were bleached as previously described ([Tal et al. 2017]). A single embryo at the dome-to-epiboly stages ([Kimmel et al. 1995]) was placed into each individual well of a 96-well plate containing a 40-μm nylon mesh filter (Millipore, Catalog No. MANMN4010) with 400μL of 10% Hanks’ balanced salt solution (HBSS) per well. Filter inserts containing zebrafish embryos were transferred to 96-well culture trays (Millipore, Catalog No. MAMCS9610) containing 250μL of 10% HBSS ([Westerfield 2007]) and 1μL of 250× working solutions per well. A final concentration of 0.4% DMSO was used for all exposure groups and as a vehicle control. In the case of GenX Free Acid in Study 2 (Figure 1), DI water was used as a vehicle control. Daily, from 1–5 dpf, plates underwent 100% media changes to refresh chemical dosing solutions by blotting (Brandel; Catalog No. FPXLR-196) and transferring mesh inserts containing zebrafish to new bottom plates (Millipore; Catalog No. MAMCS9610). To minimize evaporation, plates were sealed (Biorad; Catalog No. MSA5001) and wrapped with parafilm. Plates were maintained on a 14 h:10 h light cycle at 26.0°C and scored daily for death, malformations, hatching, and swim bladder inflation. At 6 dpf, plates were evaluated by two independent observers and DevTox or DNT assays were performed or media and tissue were collected for analytical chemistry analyses as described below.
In Study 1 (Figure 1), zebrafish were exposed, as described in the “Chemical Exposures” section, to 0.04, 0.1, 0.4, 1.1, 3.1, 9.3, 27.2, or 80.0μM PFOS, PFOA, PFHxS, PFHxA, or ADONA, or 0.4% DMSO. Six 96-well plates were tested with a single chemical concentration included on each microtiter plate. Subsequently, as part of Study 1, zebrafish were exposed to 0.04, 0.1, 0.4, 1.1, 3.1, 9.3, 27.2, or 80.0μM PFESA1, or 0.4% DMSO. In Study 2, GenX Free Acid diluted in DI water was tested by exposing zebrafish to 0.04, 0.1, 0.4, 1.1, 3.1, 9.3, 27.2, or 80.0μM of the compound or DI water. […] Zebrafish were exposed to 1.7, 3.1, 5.5, 9.8, 17.6, 31.4, 56.0, or 100.0μM of PFBS, PFHxS, PFHpS, or PFOS or 0.4% DMSO. Subsequently, zebrafish were exposed to 1.7, 3.1, 5.5, 9.8, 17.6, 31.4, 56.0, or 100.0μM PFPeS, or 0.4% DMSO. Chlorpyrifos was used as positive control for malformations ( 8.0μM ) and lethality ( 80.0μM ) ([Padilla et al. 2012]; [Tal et al. 2017]). To conduct DevTox assay assessments, at 6 dpf, two independent observers evaluated zebrafish larvae for survival, hatching, swim bladder inflation, and malformations, including curved body axis, shortened trunk, pericardial edema, yolk sac edema, necrotic yolk sac, pectoral fin abnormalities and head/jaw abnormalities. Directly after assessments, data were reviewed and, in the case of discrepancies, consensus calls were reached. Toxicity values were assigned to descriptive data (i.e., normal=0 , abnormal=20 , severely abnormal=50 , and dead=100 ), modified from a previously described approach ([Padilla et al. 2012]). Briefly, animals with a single malformation were scored as abnormal, whereas animals with ≥2 malformations were scored as severely abnormal.
For the DevTox assay, a Kruskal-Wallace nonparametric one-way analysis of variance (ANOVA) with a Dunn’s multiple comparison test was used to detect differences between exposure groups (* p<0.05 , ** p<0.0001 ) and LOEC values were determined. If a test for linear trend was significant ( p<0.05 ), with developmental toxicity observed at the highest concentration tested, nonlinear regression was performed with a Hill slope curve fitting for half maximal effective concentration ( EC50 ) value determinations.

The mark [1] stands for this setting: Study 1, 0.04–80.0 μM daily 0–5 dpf, 0.4% DMSO.
[2] abbreviates: Danio rerio, Study 1, 0.04–80.0 μM daily 0–5 dpf, 0.4% DMSO.
Where [3] appears, read: Danio rerio, Study 3, 1.7–100.0 μM daily 0–5 dpf, 0.4% DMSO.

SMILES strings stand for the structures. “Also recorded” adds a separate entry of the source.

Take `O=C(O)C(F)(F)C(F)OC(F)(F)C(F)(F)C(F)(F)OC(F)(F)F` (centres unmarked) [ADONA, 4,8-Dioxa-3H-perfluorononanoate]: the DevTox assay phenotype result is reported as “Negative^a”. Besides, under setting [1], the “Developmental toxicity outcome” value is “did not cause concentration-dependent effects on survival or development; also recorded: failed to provoke developmental toxicity or developmental neurotoxicity; also recorded: negative”.
On to `O=C(O)C(F)(OC(F)(F)C(F)(F)C(F)(F)F)C(F)(F)F` (centres unmarked) [GenX Free Acid, Perfluoro-2-propoxypropanoic acid], for which the DevTox assay phenotype result is on record as “Negative^a”. The “Developmental toxicity outcome” value (Study 2, 0.04–80.0 μM in DI water daily 0–5 dpf) is given as “negative; also recorded: failed to provoke developmental toxicity or developmental neurotoxicity”.
As for `O=S(=O)(O)C(F)(F)C(F)(F)OC(F)(C(F)(F)F)C(F)(F)OC(F)=C(F)F` (centres unmarked) [PFESA1, Perfluoro-3,6-dioxa-4-methyl-7-octene-1-sulfonic acid], the DevTox assay phenotype result is “Negative^a”. Moreover, the “Developmental toxicity outcome” value under setting [1] is “did not cause concentration-dependent effects on survival or development; also recorded: failed to provoke developmental toxicity or developmental neurotoxicity; also recorded: negative”.
The corresponding values for `O=C(O)C(F)(F)C(F)(F)C(F)(F)C(F)(F)C(F)(F)F` [PFHxA, Perfluorohexanoic acid] are “Negative” and “did not cause concentration-dependent effects on survival or development; also recorded: no observed developmental toxicity identified at the highest concentration tested”.
As to `O=S(=O)(O)C(F)(F)C(F)(F)C(F)(F)C(F)(F)C(F)(F)C(F)(F)F` [PFHxS, Perfluorohexanesulfonic acid], the DevTox assay phenotype entry is given as “Positive”. This compound came in with an EC50 under setting [2] of 92.7 µM. The compound also showed an EC50 under setting [3] of 228 µM. Under setting [1], the “Developmental toxicity outcome” value is “same morphological phenotypes as PFOS”.
Take `O=C(O)C(F)(F)C(F)(F)C(F)(F)C(F)(F)C(F)(F)C(F)(F)C(F)(F)F` [PFOA, Perfluoro-n-octanoic acid]: the DevTox assay phenotype result is recorded as “Negative”. Also, under setting [1], the “Developmental toxicity outcome” value was “did not cause concentration-dependent effects on survival or development; also recorded: negative”.
Take `O=S(=O)(O)C(F)(F)C(F)(F)C(F)(F)C(F)(F)C(F)(F)C(F)(F)C(F)(F)C(F)(F)F` [PFOS, Perfluorooctanesulfonic acid]: the DevTox assay phenotype result is recorded as “Positive”. For the same compound, the EC50 under setting [2] came out at 7.5 µM. The same compound yielded an EC50 under setting [3] of 28.2 µM. Further, under setting [1], the “Developmental toxicity outcome” value was “failed swim bladder inflation and ventroflexion of the tail”; a half-maximal effect (EC50) was put at 7.54 µM. For the same compound, the EC50 (Study 3, 1.7–100.0 μM daily 0–5 dpf, 0.4% DMSO) came out at 28.2 µM.
